A melting point compilation (Tetko et al.; mined from patent text by program, amines drawn as free bases though some values may be those of a salt)

melting point	SMILES
140 to 142 °C	Cc1nn(C(C)C)cc1C(=O)NC(C#N)c1cccs1 (centres undefined)
179 to 182 °C	CC(=O)Nc1ccc(S(=O)(=O)Cc2cccc(OC(C)=O)c2)c2cccnc12
> 200 °C	Cc1nc(N2CCN(Cc3ccc(Cl)cc3)C2=O)sc1C(N)=O
282 to 284 °C	COc1ccc(-n2c(=O)c3c(c4cccnc42)OCC3)cc1
72 °C	CCc1nn(CCO)c(CC)c1Oc1cc(C#N)cc(SC)c1
55 °C	CCCCCCCCCCCCCCCCCCOP(=O)(Cc1cc(Cl)c(O)c(C(C)(C)C)c1)OCCCCCCCCCCCCCCCCCC
198 °C	O=C(NOC1CCCCO1)c1cnc(N2CCN(S(=O)(=O)c3ccc4ccccc4c3)CC2)nc1 (centres undefined)
210 to 212 °C	CC1(C)C=C(c2ccccc2)c2cccc3c2N1C(=O)C3=O
73 to 74 °C	CCOC(=O)c1ccc(O)c(CC)c1
65 °C	CCCCNC(=O)C(C)(C)N=NC(C)(C)C(=O)NCCCC
81 °C	OC(c1ccccc1)c1nnnn1Cc1ccccc1 (centres undefined)
125 to 128 °C	CC(=O)CCC1(C(C)C)Cc2cc(OCC(=O)O)c(Cl)c(Cl)c2C1=O (centres undefined)
144 °C	O=C1[C@@H]2C[C@H](OCc3ccc4cnccc4c3)CN2C(=O)N1c1cc(Cl)cc(Cl)c1
132 to 135 °C	Cc1cnc(NC(=O)[C@H]2[C@H](c3ccccc3)C2(C)C)s1 (relative stereo)
92 to 93 °C	OC(c1ccc(F)cc1)c1cc(Br)cc(Br)c1 (centres undefined)
172 to 175 °C	CSc1ccccc1-c1ccc(C(=O)N2Cc3ccc(C(=O)NCc4cccnc4)n3Cc3ccccc32)cc1
98 °C	Cc1ccc(NC(=O)Oc2ccc3c(c2)N(Cc2ccccc2)CCC3)cc1

melting point	SMILES
200 to 202 °C	COc1ccc(C=Cc2ccc(CO)cc2)cc1
235 °C	O=C(O)C1=CSC2CC(=O)N12 (centres undefined)
143 to 144 °C	CC(C)(C)c1cc(Cc2ccc(Cl)nn2)c(O)c(C(C)(C)C)c1
38 to 48 °C	CC(C)(C)C1OC1C(O)C1CCCCC1 (centres undefined)
150 to 152 °C	O=C(CCn1ccnc1)N1c2ccccc2Sc2ccccc21
126 to 127 °C	Cc1cccc(-c2ccnc3ccnn23)n1
132 °C	O=C(c1ccncc1)c1cnc2cc(Cl)ccc2c1Cl
128 to 129 °C	COC(=O)c1cc2ccc(OCCN(C)C(=O)OC(C)(C)C)cc2oc1=O
148 °C	O=C(O)Cc1cccc(C(=O)c2ccc(Cl)cc2)c1
205 °C	CCSc1nsc(NC(=O)NC)c1C(N)=O
112 to 115 °C	CCOC(=O)CCC(=O)c1cccc(C(=O)c2ccc(Cl)cc2)c1N
120 to 122 °C	COc1cc2c(c(OC)c1OC)CCC(C(=O)Cc1cccc(F)c1)C2C#N (centres undefined)
114 to 115 °C	O=C(O)c1ccccc1Oc1ccc(Cl)cc1
186 to 187 °C	C=CC(=O)NCNC(=O)CCS(=O)(=O)CCCl
160 to 162 °C	CC1(C)CC(=Cc2nc3cc(O)ccc3o2)CC(C)(C)C1
125 to 127 °C	C[Si](C)(C)C#CCCCn1ncc(C#N)c1N
169 to 172 °C	COc1c(N2CC3CCCC3(N)C2)c(F)cc2c(=O)c(C(=O)O)cn(C3CC3F)c12 (centres undefined)

The next lines start with the compound.

SMILES	melting point
C=Cc1cc(CNC(=O)C(F)=Cc2ccc(C(C)(C)C)cc2)cc(F)c1NS(C)(=O)=O	165 to 167 °C
CNC(=O)C1(Oc2ccc3c(c2)c(-c2cc4cccnc4[nH]2)cn3C)CCC1	249 to 250 °C
CN(C)C1CCCCC1Oc1ccc(Cc2c(-c3ccc(OCCN4CCCC4)cc3)sc3cc(O)ccc23)cc1 (centres undefined)	95 to 98 °C
CCOC(=O)c1ncn2c1CN(C)C(=O)c1ccccc1-2	163 to 165 °C
Cc1noc([C@@]2(C)CC[C@@H](NCC(=O)N3C[C@@H](F)C[C@H]3C#N)C2(C)C)n1	137 to 141 °C
CCOC(=O)c1c(C)cc2nc(CO)n(-c3ccc4c(c3)OCO4)c(=O)c2c1C	159 to 161 °C
CC(C)(C)c1cc(-c2c[nH]c(CNC(=O)OCc3ccccc3)n2)cc(C(C)(C)C)c1O	212 to 213 °C
COC(=O)c1ccc(OCCNC(=O)C2Cc3ccccc3N2S(=O)(=O)c2ccc(-c3cccc(C(F)(F)F)c3)cc2)c(C(F)(F)F)c1 (centres undefined)	92 to 98 °C
Cc1ccc(NC2CCOC2=O)c(C(=O)O)c1 (centres undefined)	199 to 200 °C
O=C(NC12CC3CC(CC1C3)C2)c1ccccc1C(c1ccc(O)cc1)c1ccc(O)cc1	219 to 224 °C
COC(=O)NC(C)(C)c1ccc(CBr)cc1	74 to 76 °C
COC(=O)/C=C/c1ccc(/C=C/c2ccncc2)nc1	> 143 °C
N#CCCNC(=O)c1cccc(-c2cccc3c(F)c(Cc4cccc(C(F)(F)F)c4)sc23)c1	66 to 67 °C
Cc1c(N)cc(Cl)cc1N	75 to 77 °C
COC(=O)c1cc(-c2ccc(S(C)(=O)=O)cc2)n(-c2ccc(Cl)cc2)n1	169 to 171 °C
Clc1cccc(-c2ncoc2-c2ccncc2)c1	125 to 126 °C
CSc1ccc(C(=S)N2CCCC2)cc1	116 to 118 °C
O=C1Cc2c(cccc2NC(=O)c2cccn(-c3ccc(F)cc3)c2=O)N1	293 to 295 °C
CCN(CC)S(=O)(=O)c1cc(-c2csc(=Nc3ccccc3C)n2C)ccc1Cl	166 °C
CC1=C(/C=C/C(C)=C/C=C/C(C)=C/C(=O)OCOC(=O)Oc2ccc([N+](=O)[O-])cc2)C(C)(C)CCC1	35 to 36 °C
CC(C)(C)c1ccc(S(=O)(=O)C=CSc2ccccc2)cc1	258 °C
Nc1nc(Nc2ccccc2)sc1C(=O)c1ccsc1	171 to 172 °C

SMILES	melting point
CCCCCCCCCCCCCCCCCCNC(=O)OCC(CNS(=O)(=O)CCCI)n1nnnc1C (centres undefined)	82.5 to 83.5 °C
CCCCCCCCC=CCCCCCCCCCCCCNC(=O)C=CC(=O)O	55 °C
COc1ccc(-c2cc(=S)n(Cc3cccnc3)nc2-c2ccc(OC)cc2)cc1	163 to 164 °C
Cc1c(-c2ccccn2)[nH]c2ncnc(Nc3cccc(Cl)c3)c12	171 to 172 °C
CN(C)CCn1c(=O)c2c3oc4ccccc4oc3c3[nH]c4cc(O)ccc4c3c2c1=O	> 360 °C
COc1ccc(C(O)c2ccc(OC)c(OCc3ccccc3)c2)cc1OCc1ccccc1	103 to 105 °C
CCOC(=O)c1ncn(-c2nccs2)c1S(N)(=O)=O	84 to 85 °C
CCCc1nc(C=O)c(C(=O)OCC)n1Cc1cc2c(cc1Cl)OCO2	105 °C
COc1cc(Br)c(S(C)(=O)=O)cc1C(=O)O	225 to 258 °C
O=C(OCc1ccccc1)N1CCC(O)(C(=O)O)C1 (centres undefined)	142 to 144 °C
CC(=O)c1sc(-c2ccc(-c3ccccc3)cc2)nc1C	124 to 125 °C
CCn1c(=O)n(OCc2ccccc2)c(=O)c2cc(F)c(N3CCNCC3)cc21	166 to 167 °C
Cc1cccc(C(=O)NCN2CCN(c3ccccn3)CC2)c1	141 to 143 °C
COC(=O)COc1cccc2c1c(C(=O)C(N)=O)c(C)n2Cc1cccc2ccccc12	188 to 190 °C
Cn1c(COc2ccc(CC3SC(=O)NC3=O)cc2)nc2ccc(Oc3cccc(NC(=O)Nc4ccc(C(F)(F)F)cc4)c3)cc21 (centres undefined)	192 to 194 °C
CC1(c2ccc(F)cc2)Cc2cc(OCC(=O)O)c(Cl)c(Cl)c2C1=O (centres undefined)	150 to 156 °C
NC(=O)C(c1ccccc1)(c1ccccc1)[C@@H]1CCNC1	128 to 132 °C
CCC1(C)OC(c2ccc(S(N)(=O)=O)cc2)=C(c2ccco2)C1=O (centres undefined)	154 to 155 °C
CN(c1cccc2cc(-c3ncc(CN4CCC5(CC4)CNC(=O)O5)s3)[nH]c12)S(=O)(=O)c1cccs1	224 °C
CC(=O)Nc1nc(OCC(C)C)c2nc(Cl)ccc2n1	168 °C
CCCCCCC(C)(C)c1ccc([C@@H]2CC(=O)C[C@H](C)C2)c(O)c1 (relative stereo)	95 to 98 °C
CCc1cccc(Sc2ccccc2)c1NC(=O)CC1c2ccccc2Oc2ccccc21	237 to 239 °C

SMILES	melting point
CCCCCCOc1ccc(CCC(=O)OC2CCC3C4CCC5=CC(=O)CCC5C4CCC23C)cc1 (centres undefined)	52 to 53 °C
CCOC(=O)C(=O)N(CCO)N=Cc1ccccc1	96 to 98 °C
CC(=O)C(=Cc1cccc([N+](=O)[O-])c1)C(=O)CCCCCCCCCCBr	64 to 67 °C
CC(C)(Cl)C(CCN1C(=O)c2ccccc2C1=O)N=O (centres undefined)	140 to 141 °C
O=C(NCCn1cncn1)c1ccco1	131 to 133 °C
COC(=O)N1CCC(n2c(=O)[nH]c3cc(Cl)ccc32)C(C)C1 (centres undefined)	196 °C
COc1cc(CCC(=O)O)ccc1OCCCc1cn(-c2ccc(C(F)(F)F)cn2)nc1C(C)C	118 to 119 °C
COc1cc2c(c(OC(=O)Cc3ccccc3)c1OC)=NC(=O)C(=O)N=2	298 to 300 °C
Cc1c(-c2ccc(O)cc2)sc(C=O)c1-c1cccc(O)c1	208 to 210 °C
O=C(CCc1ccc(NC(=O)c2ccccc2)cc1)NO	189 to 191 °C
CC(=O)Nc1c(C(=O)c2ccc(O)c(O)c2)[nH]c2cc(Cl)ccc12	193 to 200 °C
COc1cccc2c(C3CCN(C(=O)OC(C)(C)C)CC3)noc12	130 to 132 °C
C=CCN1C(=O)C(F)N=C(c2ccccc2)c2cc(Cl)ccc21 (centres undefined)	138 to 140 °C
CC(O)CNc1ccnc2cc(Cl)ccc12 (centres undefined)	168 to 170 °C
C[C@]12CCC(=O)N[C@@H]1CCc1cc(C=O)ccc12	185 to 189 °C
COC(=O)c1ccc(C(=O)Nc2nnc(-c3cc(Cl)cc(Cl)c3O)s2)nc1	301 °C
Cc1noc(NC(=O)N2CCC(c3nc(-c4ccccc4)cs3)CC2)c1C	156 to 157 °C
CCCCc1nc2sc(C(=O)O)cc2n1Cc1ccc(-c2ccccc2C(=O)O)cc1	264 °C
CC(C)c1ccc(C(F)(F)C(F)(F)c2ccccc2)cc1	97 to 104 °C
COC(=O)Nc1cccc(C)c1COc1cccn2c(C=O)c(C)nc12	196 to 198 °C
C#CCN(c1ccc(C(=O)OC(C)(C)C)cc1)C1CCc2cc3nc(COC(=O)C(C)(C)C)[nH]c(=O)c3cc21 (racemic)	134 °C
